Among the targets are PAK6 (Homo sapiens, UniProt Q9NQU5); PRKCH (Homo sapiens, UniProt P24723); STK35 (Homo sapiens, UniProt Q8TDR2).
Common to all, as to assay: biochemical
Common to all, as to parameters: KINOMEscan scanMAX competition binding, DNA-tagged kinases, qPCR read-out, percent control at 300 nM
For orientation: Quantitative PCR measures a nucleic acid by following its amplification.

For the next assay, the target named is T1, CSNK1A1L (Homo sapiens, UniProt Q8N752).
T1 sequence (Q8N752 1-337): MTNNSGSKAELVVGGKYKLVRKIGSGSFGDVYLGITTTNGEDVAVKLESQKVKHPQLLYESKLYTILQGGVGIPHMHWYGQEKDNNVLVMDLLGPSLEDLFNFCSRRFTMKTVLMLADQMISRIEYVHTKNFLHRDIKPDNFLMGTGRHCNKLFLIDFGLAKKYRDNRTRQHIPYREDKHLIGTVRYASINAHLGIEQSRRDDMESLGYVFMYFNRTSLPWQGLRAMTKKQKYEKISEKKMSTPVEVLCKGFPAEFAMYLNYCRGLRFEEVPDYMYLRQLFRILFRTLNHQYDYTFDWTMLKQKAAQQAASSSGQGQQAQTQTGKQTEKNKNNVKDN

For another assay, the target named is T2, EPHB6 (Homo sapiens, UniProt O15197).
T2 sequence (O15197 1-1021): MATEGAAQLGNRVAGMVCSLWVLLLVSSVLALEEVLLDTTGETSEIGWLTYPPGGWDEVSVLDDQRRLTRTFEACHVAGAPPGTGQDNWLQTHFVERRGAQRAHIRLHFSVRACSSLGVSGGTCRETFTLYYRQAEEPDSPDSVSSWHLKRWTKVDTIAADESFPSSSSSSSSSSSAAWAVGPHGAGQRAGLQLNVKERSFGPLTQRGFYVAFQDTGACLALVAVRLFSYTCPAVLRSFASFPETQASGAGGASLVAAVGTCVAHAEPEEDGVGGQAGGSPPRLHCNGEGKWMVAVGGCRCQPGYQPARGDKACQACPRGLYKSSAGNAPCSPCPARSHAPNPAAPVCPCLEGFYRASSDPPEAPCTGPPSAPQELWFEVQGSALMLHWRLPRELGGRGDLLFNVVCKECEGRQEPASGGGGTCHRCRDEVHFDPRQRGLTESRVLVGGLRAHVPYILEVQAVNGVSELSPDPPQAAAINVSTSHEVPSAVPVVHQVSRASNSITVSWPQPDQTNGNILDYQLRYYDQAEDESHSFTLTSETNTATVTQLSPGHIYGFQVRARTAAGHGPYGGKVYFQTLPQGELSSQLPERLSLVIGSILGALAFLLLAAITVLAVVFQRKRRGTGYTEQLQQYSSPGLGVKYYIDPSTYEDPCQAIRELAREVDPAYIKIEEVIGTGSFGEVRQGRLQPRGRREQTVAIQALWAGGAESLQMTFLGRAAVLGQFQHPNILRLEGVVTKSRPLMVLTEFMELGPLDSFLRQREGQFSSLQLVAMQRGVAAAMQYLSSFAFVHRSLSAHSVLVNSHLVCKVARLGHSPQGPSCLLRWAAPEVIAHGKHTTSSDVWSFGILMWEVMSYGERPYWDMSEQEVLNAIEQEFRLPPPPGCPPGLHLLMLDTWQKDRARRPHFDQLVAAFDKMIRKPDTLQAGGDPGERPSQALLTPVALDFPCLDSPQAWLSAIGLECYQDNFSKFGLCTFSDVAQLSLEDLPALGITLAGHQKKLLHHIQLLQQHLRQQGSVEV

For the next assay, the target named is T3, IRAK3 (Homo sapiens, UniProt Q9Y616).
T3 sequence (Q9Y616 1-596): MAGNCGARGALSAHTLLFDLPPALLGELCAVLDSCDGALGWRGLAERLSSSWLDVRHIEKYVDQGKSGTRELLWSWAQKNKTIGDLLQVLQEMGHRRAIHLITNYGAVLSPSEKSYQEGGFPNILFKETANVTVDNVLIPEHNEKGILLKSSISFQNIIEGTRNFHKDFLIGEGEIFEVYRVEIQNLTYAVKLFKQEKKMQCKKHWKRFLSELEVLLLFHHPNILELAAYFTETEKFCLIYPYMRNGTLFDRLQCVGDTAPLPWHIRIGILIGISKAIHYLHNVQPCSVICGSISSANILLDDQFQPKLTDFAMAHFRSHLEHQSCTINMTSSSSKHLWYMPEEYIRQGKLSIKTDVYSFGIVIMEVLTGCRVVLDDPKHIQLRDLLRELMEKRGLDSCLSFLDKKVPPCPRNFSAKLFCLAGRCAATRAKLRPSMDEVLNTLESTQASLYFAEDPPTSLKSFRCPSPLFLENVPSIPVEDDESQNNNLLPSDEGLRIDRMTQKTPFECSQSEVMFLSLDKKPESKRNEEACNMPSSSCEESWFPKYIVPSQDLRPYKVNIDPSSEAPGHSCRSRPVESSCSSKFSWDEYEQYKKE

The mark [1] stands for this setting: read-out: Percent control / Zanubrutinib.
Where [2] appears, read: read-out: Percent control / Tirabrutinib.
[3] abbreviates: read-out: Percent control / Ibrutinib.
Setting [4] is: read-out: Percent control / Acalabrutinib.

The structures appear in SMILES notation. Read-outs that look alike come from different tables or passages of the source.

This passage reports remaining binding results from article PMC10004634 (PLOS ONE, 2023).

STK35, sequence (Q8TDR2 whole entry): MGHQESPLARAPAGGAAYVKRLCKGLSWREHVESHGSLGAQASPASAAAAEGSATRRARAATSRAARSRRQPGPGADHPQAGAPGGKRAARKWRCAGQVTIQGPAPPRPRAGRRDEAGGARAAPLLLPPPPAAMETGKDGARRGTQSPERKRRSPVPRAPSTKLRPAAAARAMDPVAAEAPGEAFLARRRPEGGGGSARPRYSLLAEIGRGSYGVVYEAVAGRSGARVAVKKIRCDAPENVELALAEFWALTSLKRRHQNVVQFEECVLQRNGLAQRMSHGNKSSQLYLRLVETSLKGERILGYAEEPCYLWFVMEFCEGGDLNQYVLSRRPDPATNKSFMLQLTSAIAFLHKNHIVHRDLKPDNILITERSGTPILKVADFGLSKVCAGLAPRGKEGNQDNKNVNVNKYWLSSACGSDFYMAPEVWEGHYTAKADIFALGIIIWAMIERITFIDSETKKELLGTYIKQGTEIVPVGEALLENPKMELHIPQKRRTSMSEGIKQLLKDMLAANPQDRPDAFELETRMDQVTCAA
PAK6, sequence (Q9NQU5 whole entry): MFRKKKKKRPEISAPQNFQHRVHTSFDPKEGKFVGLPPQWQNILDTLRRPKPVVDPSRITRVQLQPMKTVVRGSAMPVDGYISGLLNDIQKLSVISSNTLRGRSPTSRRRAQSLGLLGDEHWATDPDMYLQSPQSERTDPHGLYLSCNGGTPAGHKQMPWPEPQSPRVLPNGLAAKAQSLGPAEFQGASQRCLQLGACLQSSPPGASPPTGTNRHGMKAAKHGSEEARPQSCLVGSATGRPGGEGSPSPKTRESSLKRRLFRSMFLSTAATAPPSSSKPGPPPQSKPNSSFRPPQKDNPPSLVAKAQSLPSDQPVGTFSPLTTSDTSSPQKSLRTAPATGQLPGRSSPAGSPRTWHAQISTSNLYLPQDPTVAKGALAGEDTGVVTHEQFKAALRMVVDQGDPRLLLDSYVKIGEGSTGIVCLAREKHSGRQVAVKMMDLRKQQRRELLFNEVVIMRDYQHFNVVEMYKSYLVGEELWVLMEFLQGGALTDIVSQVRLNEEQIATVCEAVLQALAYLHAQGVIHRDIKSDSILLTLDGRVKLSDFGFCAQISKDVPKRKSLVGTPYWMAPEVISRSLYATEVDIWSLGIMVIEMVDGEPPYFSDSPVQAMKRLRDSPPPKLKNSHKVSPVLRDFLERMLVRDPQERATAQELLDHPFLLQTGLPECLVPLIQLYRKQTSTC
PRKCH, sequence (P24723 whole entry): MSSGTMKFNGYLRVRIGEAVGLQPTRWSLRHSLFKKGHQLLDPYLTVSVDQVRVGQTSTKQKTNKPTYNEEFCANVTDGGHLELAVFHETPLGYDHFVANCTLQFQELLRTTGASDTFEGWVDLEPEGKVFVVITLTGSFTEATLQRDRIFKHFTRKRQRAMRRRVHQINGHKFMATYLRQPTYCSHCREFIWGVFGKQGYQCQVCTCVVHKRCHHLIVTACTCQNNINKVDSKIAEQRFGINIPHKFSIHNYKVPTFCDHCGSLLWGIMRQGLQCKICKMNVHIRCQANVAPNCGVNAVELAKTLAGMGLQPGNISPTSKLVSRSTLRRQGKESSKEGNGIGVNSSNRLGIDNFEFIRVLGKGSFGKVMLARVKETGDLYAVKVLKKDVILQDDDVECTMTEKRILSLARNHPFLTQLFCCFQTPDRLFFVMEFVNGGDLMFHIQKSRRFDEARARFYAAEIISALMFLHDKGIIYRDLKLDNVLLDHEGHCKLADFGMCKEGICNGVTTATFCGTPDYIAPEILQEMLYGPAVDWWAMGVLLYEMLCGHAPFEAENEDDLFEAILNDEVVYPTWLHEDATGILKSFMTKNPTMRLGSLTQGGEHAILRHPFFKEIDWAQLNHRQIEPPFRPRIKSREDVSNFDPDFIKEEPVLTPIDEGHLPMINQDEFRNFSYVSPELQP

Turning to `C=CC(=O)N1CCC([C@@H]2CCNc3c(C(N)=O)c(-c4ccc(Oc5ccccc5)cc4)nn32)CC1` [Zanubrutinib], the remaining binding at 0.3 µM at CSNK1A1L (setting [1]) amounted to 83%; on EPHB6 (setting [1]), 96%; on IRAK3 (setting [1]) it was 91%; at PAK6 (setting [1]), 91%; on PRKCH (setting [1]) it was 97%; at STK35 (setting [1]), 92%.

Take `CC#CC(=O)N1CC[C@@H](n2c(=O)n(-c3ccc(Oc4ccccc4)cc3)c3c(N)ncnc32)C1` [Tirabrutinib]: the remaining binding at 0.3 µM is 93% at CSNK1A1L (setting [2]); 70% on EPHB6 (setting [2]); 80% on IRAK3 (setting [2]); 98% on PAK6 (setting [2]); 91% on PRKCH (setting [2]).

Take `C=CC(=O)N1CCC[C@@H](n2nc(-c3ccc(Oc4ccccc4)cc3)c3c(N)ncnc32)C1` [Ibrutinib]: the remaining binding at 0.3 µM was determined as 93% at CSNK1A1L (setting [3]); 46% at EPHB6 (setting [3]); 86% on IRAK3 (setting [3]); 90% on PRKCH (setting [3]); 86% on STK35 (setting [3]).

Regarding `CC#CC(=O)N1CCC[C@H]1c1nc(-c2ccc(C(=O)Nc3ccccn3)cc2)c2c(N)nccn12` [Acalabrutinib], the remaining binding at 0.3 µM on CSNK1A1L (setting [4]) was found to be 84%; at EPHB6 (setting [4]), 85%; at IRAK3 (setting [4]), 86%; at PAK6 (setting [4]), 88%; at PRKCH (setting [4]) it was 94%; on STK35 (setting [4]) it was 96%.
